From patent US9139532B2, “Pyrazolyl guanidine F1F0-atpase inhibitors and therapeutic uses thereof” (Lycera Corporation, priority 2010, dated 2015)
Like-named read-outs stand apart in the source and are kept apart here.

Key:
[1] = target: T1, F1F0-ATPase (Bos taurus, UniProt P13621); test: Inhibition of F1F0-ATPase activity in synthesizing ATP; type: biochemical; conditions: inhibition of ATP synthesis by F1F0-ATPase; read-out: ATP Syn IC50
T1 construct: from tissue

[2] = system: Ramos cells; test: Cytotoxicity in Ramos cells; type: cell-based; conditions: cytotoxicity in Ramos cells, read-out: Ramos Cell EC50

| IC50 [1] [µM] | SMILES | EC50 ([2]; Homo sapiens) [µM] | EC50 [2] [µM] |
| --- | --- | --- | --- |
| < 10 | CC(C)CNC(=NC(=O)c1ccc(Cl)c(F)c1)Nc1cc(-c2ccc(Cl)cc2)n[nH]1 [Compound A-381] | < 10 | – |
| < 10 | O=C(N=C(Nc1cc(-c2ccc(Cl)cc2)n[nH]1)NC1CCCC1)c1ccc(Cl)c(F)c1 [Compound A-382] | < 10 | – |
| < 10 | CC(C)NC(=NC(=O)c1ccc(Cl)c(F)c1)Nc1cc(-c2ccc(Cl)cc2)n[nH]1 [Compound A-383] | < 10 | – |
| < 10 | COCC(C)NC(=NC(=O)c1cccc(F)c1)Nc1cc(-c2ccc(Cl)cc2)n[nH]1 (stereo not drawn) [Compound A-384] | – | < 10 |
| < 10 | O=C(/N=C(\Nc1cc(-c2ccc(Cl)cc2)n[nH]1)NC1CCCC1)c1cccc(F)c1 [Compound A-385] | – | < 10 |
| < 10 | CC(C)N/C(=N/C(=O)c1cccc(F)c1)Nc1cc(-c2ccc(Cl)cc2)n[nH]1 [Compound A-386] | – | < 10 |
| < 10 | COc1cccc(F)c1C(=O)/N=C(\Nc1cc(-c2ccc(F)cc2)n[nH]1)NC(C)(C)C [Compound A-387] | – | > 10 |
| < 10 | O=C(/N=C(\Nc1cc(-c2ccc(F)cc2)n[nH]1)NC1CCCC1)c1cccc(F)c1 [Compound A-388] | – | < 10 |
| < 10 | COCC(C)NC(=NC(=O)c1cccc(F)c1)Nc1cc(-c2ccc(F)cc2)n[nH]1 (stereo not drawn) [Compound A-389] | – | < 10 |
| < 10 | CC(C)N/C(=N/C(=O)c1cccc(F)c1)Nc1cc(-c2ccc(F)cc2)n[nH]1 [Compound A-390] | – | > 10 |
| > 10 | C[C@@H](CO)N/C(=N/C(=O)c1ccc(F)cc1)Nc1cc(-c2ccc(F)cc2)n[nH]1 [Compound A-391] | – | > 10 |
| < 10 | COc1cccc(CN/C(=N/C(=O)c2ccc(F)c(C)c2)Nc2cc(-c3ccc(F)cc3)n[nH]2)c1 [Compound A-392] | – | < 10 |
| < 10 | Cc1cc(C(=O)/N=C(/NCc2ccccc2C)Nc2cc(-c3ccc(F)cc3)[nH]n2)ccc1F [Compound A-393] | – | < 10 |
| < 10 | COc1cccc(CN/C(=N/C(=O)c2cccc(OC)c2)Nc2cc(-c3ccc(F)cc3)[nH]n2)c1 [Compound A-394] | – | < 10 |
| < 10 | COc1cccc(C(=O)/N=C(/NCc2ccccc2C)Nc2cc(-c3ccc(F)cc3)[nH]n2)c1 [Compound A-395] | – | < 10 |
| < 10 | COc1cccc(CN/C(=N/C(=O)c2cc(F)c(F)c(F)c2)Nc2cc(-c3ccc(F)cc3)[nH]n2)c1 [Compound A-396] | – | < 10 |
| < 10 | Cc1ccccc1CN/C(=N/C(=O)c1cc(F)c(F)c(F)c1)Nc1cc(-c2ccc(F)cc2)[nH]n1 [Compound A-397] | – | < 10 |
| < 10 | COc1cccc(CN/C(=N/C(=O)c2cccc(F)c2)Nc2cc(-c3ccc(F)cc3)[nH]n2)c1 [Compound A-398] | – | < 10 |
| < 10 | Cc1ccccc1CN/C(=N/C(=O)c1cccc(F)c1)Nc1cc(-c2ccc(F)cc2)[nH]n1 [Compound A-399] | – | < 10 |
| < 10 | COc1cccc(CNC(=NC(=O)c2ccc(Cl)cc2)Nc2cc(-c3ccc(F)cc3)n[nH]2)c1 [Compound A-400] | < 10 | – |

| IC50 [1] [µM] | SMILES | EC50 ([2]; Homo sapiens) [µM] | EC50 [2] [µM] |
| --- | --- | --- | --- |
| < 10 | Cc1ccccc1CNC(=NC(=O)c1ccc(Cl)cc1)Nc1cc(-c2ccc(F)cc2)n[nH]1 [Compound A-401] | < 10 | – |
| < 10 | CCOc1cccc(C(=O)/N=C(\Nc2cc(-c3ccc(F)cc3)[nH]n2)NC(C)(C)C)c1 [Compound A-402] | – | < 10 |
| < 10 | CC(C)(C)NC(=NC(=O)c1cc(F)c(F)c(F)c1)Nc1cc(-c2ccc(F)cc2)n[nH]1 [Compound A-403] | < 10 | – |
| < 10 | Cc1cc(C(=O)N=C(Nc2cc(C(F)(F)F)[nH]n2)NC(C)CO)ccc1F (stereo not drawn) [Compound A-404] | – | > 10 |
| < 10 | Cc1cc(C(=O)/N=C(\Nc2cc(-c3ccc(F)cc3)[nH]n2)N[C@@H](C)CO)ccc1F [Compound A-405] | – | < 10 |
| < 10 | O=C(/N=C(/NCC1CCOC1)Nc1cc(C(F)(F)F)[nH]n1)c1ccc(F)cc1 (stereo not drawn) [Compound A-406] | – | > 10 |
| < 10 | COCCCN/C(=N/C(=O)c1ccc(F)cc1)Nc1cc(C(F)(F)F)[nH]n1 [Compound A-409] | – | > 10 |
| < 10 | CCOCCN/C(=N/C(=O)c1ccc(F)cc1)Nc1cc(C(F)(F)F)[nH]n1 [Compound A-410] | – | > 10 |
| < 10 | O=C(/N=C(/NCc1nccs1)Nc1cc(C(F)(F)F)[nH]n1)c1ccc(F)cc1 [Compound A-411] | – | > 10 |
| < 10 | CC1(C)OCC(CN/C(=N/C(=O)c2ccc(F)cc2)Nc2cc(C(F)(F)F)[nH]n2)O1 (stereo not drawn) [Compound A-412] | – | > 10 |
| < 10 | O=C(/N=C(/NCC1CCCO1)Nc1cc(C(F)(F)F)[nH]n1)c1ccc(F)cc1 (stereo not drawn) [Compound A-413] | – | > 10 |
| < 10 | Cc1ccc(CN/C(=N/C(=O)c2ccc(F)cc2)Nc2cc(C(F)(F)F)[nH]n2)o1 [Compound A-414] | – | < 10 |
| < 10 | O=C(/N=C(\Nc1cc(C(F)(F)F)[nH]n1)NC1(CO)CCCC1)c1ccc(F)cc1 [Compound A-415] | – | > 10 |
| < 10 | Cc1csc(CN/C(=N/C(=O)c2ccc(F)cc2)Nc2cc(C(F)(F)F)[nH]n2)n1 [Compound A-416] | – | > 10 |
| < 10 | Cc1cc(-c2cc(N/C(=N\C(=O)c3ccc(C(F)(F)F)cc3)NC(C)(C)C)n[nH]2)ccc1F [Compound A-417] | – | < 10 |
| < 10 | Cc1cc(-c2cc(N/C(=N\C(=O)c3ccc(F)cc3)NC(C)(C)C)n[nH]2)ccc1F [Compound A-418] | – | < 10 |
| < 10 | O=C(N=C(Nc1cc(F)cc(Cl)c1)Nc1cc(-c2cc(F)cc(F)c2)[nH]n1)c1ccc(F)c(F)c1 [Compound A-419] | < 10 | – |
| < 10 | CC(C)(C)N/C(=N/C(=O)c1ccc(F)c(F)c1)Nc1cc(-c2cc(F)cc(F)c2)[nH]n1 [Compound A-420] | – | < 10 |
| < 10 | O=C(/N=C(\Nc1cc(-c2cccc(C(F)(F)F)c2)[nH]n1)NC1CCCC1)c1ccc(C(F)(F)F)cc1 [Compound A-421] | – | < 10 |
| < 10 | O=C(N=C(Nc1cc(F)cc(Cl)c1)Nc1cc(-c2cccc(C(F)(F)F)c2)[nH]n1)c1ccc(F)c(F)c1 [Compound A-422] | < 10 | – |

| IC50 [1] [µM] | SMILES | EC50 ([2]; Homo sapiens) [µM] | EC50 [2] [µM] |
| --- | --- | --- | --- |
| < 10 | CC(C)(C)N/C(=N/C(=O)c1ccc(F)c(F)c1)Nc1cc(-c2cccc(C(F)(F)F)c2)[nH]n1 [Compound A-423] | – | < 10 |
| < 10 | COc1ccccc1CN/C(=N/C(=O)c1ccc(C(F)(F)F)cc1)Nc1cc(C(F)(F)F)[nH]n1 [Compound A-424] | – | < 10 |
| < 10 | COc1ccc(CN/C(=N/C(=O)c2ccccc2)Nc2cc(C(F)(F)F)[nH]n2)cc1 [Compound A-425] | – | < 10 |
| < 10 | Cc1ccc(-c2cc(NC(=NC(=O)c3ccc(C(F)(F)F)cc3)NC(C)(C)C)[nH]n2)cc1 [Compound A-426] | > 10 | – |
| < 10 | Cc1ccc(-c2cc(N/C(=N\C(=O)c3ccc(F)c(F)c3)NC(C)(C)C)[nH]n2)cc1 [Compound A-427] | – | < 10 |
| < 10 | Cc1ccc(-c2cc(N/C(=N\C(=O)c3ccc(F)c(F)c3)Nc3cc(F)cc(Cl)c3)[nH]n2)cc1 [Compound A-428] | – | > 10 |
| < 10 | CC(C)CN/C(=N/C(=O)c1cccc(S(C)(=O)=O)c1)Nc1cc(-c2ccc(F)cc2)n[nH]1 [Compound A-429] | – | < 10 |
| < 10 | CCC(C)N/C(=N/C(=O)c1cccc(S(C)(=O)=O)c1)Nc1cc(-c2ccc(F)cc2)n[nH]1 (stereo not drawn) [Compound A-430] | – | < 10 |
| < 10 | CCc1ccc(-c2cc(N/C(=N\C(=O)c3ccc(F)c(F)c3)NC(C)(C)C)[nH]n2)cc1 [Compound A-431] | – | < 10 |
| < 10 | CCc1ccc(-c2cc(N/C(=N\C(=O)c3ccc(C(F)(F)F)cc3)NC(C)(C)C)[nH]n2)cc1 [Compound A-432] | – | > 10 |
| < 10 | Cc1ccc(-c2cc(N/C(=N\C(=O)c3ccc(F)c(F)c3)NC(C)(C)C)[nH]n2)cc1F [Compound A-433] | – | < 10 |
| < 10 | Cc1ccc(-c2cc(NC(=NC(=O)c3ccc(C(F)(F)F)cc3)NC(C)(C)C)[nH]n2)cc1F [Compound A-434] | > 10 | – |
| < 10 | CC(C)(C)NC(=NC(=O)c1ccc(F)c(F)c1)Nc1cc(-c2ccccc2)n[nH]1 [Compound A-435] | < 10 | – |
| < 10 | O=C(/N=C(/Nc1cc(F)cc(Cl)c1)Nc1cc(-c2ccccc2)n[nH]1)c1ccc(F)c(F)c1 [Compound A-436] | – | > 10 |
| < 10 | CC(C)(C)N/C(=N/C(=O)c1cccc(C(F)(F)F)c1)Nc1cc(-c2ccc(Cl)cc2)n[nH]1 [Compound A-437] | – | < 10 |
| < 10 | CC(C)(C)N/C(=N/C(=O)c1cccc(F)c1)Nc1cc(-c2cccc(Cl)c2)n[nH]1 [Compound A-438] | – | < 10 |
| < 10 | CC(C)(C)NC(=NC(=O)c1ccc(C(F)(F)F)cc1)Nc1cc(-c2cccc(Cl)c2)[nH]n1 [Compound A-439] | < 10 | – |
| < 10 | O=C(N=C(NCc1ccc(F)cc1Cl)Nc1cc(-c2ccc(F)cc2)n[nH]1)c1ccc(F)c(F)c1 [Compound A-440] | < 10 | – |
| < 10 | O=C(/N=C(/Nc1cc(F)cc(Cl)c1)Nc1cc(-c2ccc(F)cc2)n[nH]1)c1ccc(F)c(F)c1 [Compound A-441] | – | < 10 |
| < 10 | O=C(N=C(Nc1cc(F)cc(Cl)c1)Nc1cc(-c2cccc(Cl)c2)[nH]n1)c1ccc(F)c(F)c1 [Compound A-442] | < 10 | – |
